According to PubChem BioAssay AID2060904 (Molecular Pharmacology Branch, DTP, NCI, 2025):

Tested on: 349418-098-R-PDC complex spheroid viability
Experiment: Anticancer human tumor 349418-098-R-PDC patient-derived lung adenocarcinoma cell line growth inhibition [RAS]
Conditions: for IC50: curve of first compound; for viability, T/C: stronger effect = lower value
In short: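 Tumour cells grown as complex spheroids with HUVEC endothelial cells and mesenchymal stem cells, treated with RAS pathway inhibitor combinations. Each agent spans half-log steps from near clinical Cmax, or 10 microM where Cmax is unknown.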
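Further: spheroids exposed to compound for seven days before viability readout.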

With `CC(Nc1ccc2c(c1)OCCn1cc(N3C(=O)OCC3C(F)F)nc1-2)C(N)=O` (centres undefined) + CCn1c(-c2cccnc2C(C)OC)c2c3cc(ccc31)N1CCOC(CC(NC(=O)C(C(C)C)N(C)C(=O)C3(F)CCN(C(=O)C#CC(C)(C)N(C)C)CC3)C(=O)N3CCCC(N3)C(=O)OCC(C)(C)C2)C1 the IC50 (second compound 0.000949 µM) was 36.4 nM, the IC50 (second compound 0.003 µM) was 99.4 nM and the IC50 (second compound 0.00949 µM) was 72.4 nM. For the same compound, the IC50 (second compound 0.03 µM) was 278 nM, the IC50 (second compound 0.0949 µM) was less than 31.6 nM and the IC50 (second compound 0.3 µM) was 39.9 nM. For the same compound, the viability, T/C (second compound 0.000949 µM, first compound 0.0316 µM) was 72.9%, the viability, T/C (second compound 0.000949 µM, first compound 0.1 µM) was 36.7% and the viability, T/C (second compound 0.000949 µM, first compound 0.316 µM) was 17.7%. It also gave a viability, T/C (second compound 0.000949 µM, first compound 1 µM) of 17.2%, a viability, T/C (second compound 0.000949 µM, first compound 3.16 µM) of 101% and a viability, T/C (second compound 0.000949 µM, first compound 10 µM) of 16.2%. It also gave a viability, T/C (second compound 0.003 µM, first compound 0.0316 µM) of 80.3%, a viability, T/C (second compound 0.003 µM, first compound 0.1 µM) of 56.2% and a viability, T/C (second compound 0.003 µM, first compound 0.316 µM) of 30.2%. It also gave a viability, T/C (second compound 0.003 µM, first compound 1 µM) of 19.6%, a viability, T/C (second compound 0.003 µM, first compound 3.16 µM) of 99.2% and a viability, T/C (second compound 0.003 µM, first compound 10 µM) of 12.9%. It also gave a viability, T/C (second compound 0.00949 µM, first compound 0.0316 µM) of 73.4%, a viability, T/C (second compound 0.00949 µM, first compound 0.1 µM) of 43.6% and a viability, T/C (second compound 0.00949 µM, first compound 0.316 µM) of 25.2%. The viability, T/C (second compound 0.00949 µM, first compound 1 µM) was 14.9%, the viability, T/C (second compound 0.00949 µM, first compound 3.16 µM) was 94.2% and the viability, T/C (second compound 0.00949 µM, first compound 10 µM) was 11.8%. For the same compound, the viability, T/C (second compound 0.03 µM, first compound 0.0316 µM) was 67.6%, the viability, T/C (second compound 0.03 µM, first compound 0.1 µM) was 43% and the viability, T/C (second compound 0.03 µM, first compound 0.316 µM) was 32.2%. The viability, T/C (second compound 0.03 µM, first compound 1 µM) was 24.3%, the viability, T/C (second compound 0.03 µM, first compound 3.16 µM) was 112% and the viability, T/C (second compound 0.03 µM, first compound 10 µM) was 14.7%. The viability, T/C (second compound 0.0949 µM, first compound 0.0316 µM) was 55.9%, the viability, T/C (second compound 0.0949 µM, first compound 0.1 µM) was 44.5% and the viability, T/C (second compound 0.0949 µM, first compound 0.316 µM) was 25.9%. It also gave a viability, T/C (second compound 0.0949 µM, first compound 1 µM) of 17.9%, a viability, T/C (second compound 0.0949 µM, first compound 3.16 µM) of 98.1% and a viability, T/C (second compound 0.0949 µM, first compound 10 µM) of 10.4%. For the same compound, the viability, T/C (second compound 0.3 µM, first compound 0.0316 µM) was 53.7%, the viability, T/C (second compound 0.3 µM, first compound 0.1 µM) was 37.8% and the viability, T/C (second compound 0.3 µM, first compound 0.316 µM) was 21.5%. It also gave a viability, T/C (second compound 0.3 µM, first compound 1 µM) of 19%, a viability, T/C (second compound 0.3 µM, first compound 3.16 µM) of 65% and a viability, T/C (second compound 0.3 µM, first compound 10 µM) of 14.5%.
`CC(C)n1nc(-c2ccc3oc(N)nc3c2)c2c(N)ncnc21` + C#Cc1c(F)ccc2cc(O)cc(-c3ncc4c(N5CC6CCC(C5)N6)nc(OCC56CCCN5CC(F)C6)nc4c3F)c12 gave an IC50 (second compound 0.0316 µM) of 5.82 nM, an IC50 (second compound 0.1 µM) of 3.71 nM and an IC50 (second compound 0.316 µM) of 5.3 nM. It also gave an IC50 (second compound 1 µM) of 6.59 nM, an IC50 (second compound 3.16 µM) of 3.7 nM and an IC50 (second compound 10 µM) of 1.58 nM. It also gave a viability, T/C (second compound 0.0316 µM, first compound 0.000316 µM) of 98.7%, a viability, T/C (second compound 0.0316 µM, first compound 0.001 µM) of 132% and a viability, T/C (second compound 0.0316 µM, first compound 0.00316 µM) of 90.5%. It also gave a viability, T/C (second compound 0.0316 µM, first compound 0.01 µM) of 15.3%, a viability, T/C (second compound 0.0316 µM, first compound 0.0316 µM) of 10.9% and a viability, T/C (second compound 0.0316 µM, first compound 0.1 µM) of 10.4%. The viability, T/C (second compound 0.1 µM, first compound 0.000316 µM) was 67.8%, the viability, T/C (second compound 0.1 µM, first compound 0.001 µM) was 123% and the viability, T/C (second compound 0.1 µM, first compound 0.00316 µM) was 56%. The viability, T/C (second compound 0.1 µM, first compound 0.01 µM) was 19.4%, the viability, T/C (second compound 0.1 µM, first compound 0.0316 µM) was 10.4% and the viability, T/C (second compound 0.1 µM, first compound 0.1 µM) was 9%. The viability, T/C (second compound 0.316 µM, first compound 0.000316 µM) was 87.8%, the viability, T/C (second compound 0.316 µM, first compound 0.001 µM) was 114% and the viability, T/C (second compound 0.316 µM, first compound 0.00316 µM) was 73.9%. The viability, T/C (second compound 0.316 µM, first compound 0.01 µM) was 20.5%, the viability, T/C (second compound 0.316 µM, first compound 0.0316 µM) was 8.95% and the viability, T/C (second compound 0.316 µM, first compound 0.1 µM) was 8.66%. It also gave a viability, T/C (second compound 1 µM, first compound 0.000316 µM) of 74.8%, a viability, T/C (second compound 1 µM, first compound 0.001 µM) of 111% and a viability, T/C (second compound 1 µM, first compound 0.00316 µM) of 85.9%. For the same compound, the viability, T/C (second compound 1 µM, first compound 0.01 µM) was 29.2%, the viability, T/C (second compound 1 µM, first compound 0.0316 µM) was 8.08% and the viability, T/C (second compound 1 µM, first compound 0.1 µM) was 9.16%. It also gave a viability, T/C (second compound 3.16 µM, first compound 0.000316 µM) of 109%, a viability, T/C (second compound 3.16 µM, first compound 0.001 µM) of 104% and a viability, T/C (second compound 3.16 µM, first compound 0.00316 µM) of 48.4%. For the same compound, the viability, T/C (second compound 3.16 µM, first compound 0.01 µM) was 30.2%, the viability, T/C (second compound 3.16 µM, first compound 0.0316 µM) was 9.48% and the viability, T/C (second compound 3.16 µM, first compound 0.1 µM) was 8.95%. It also gave a viability, T/C (second compound 10 µM, first compound 0.000316 µM) of 56.1%, a viability, T/C (second compound 10 µM, first compound 0.001 µM) of 72% and a viability, T/C (second compound 10 µM, first compound 0.00316 µM) of 28.5%. It also gave a viability, T/C (second compound 10 µM, first compound 0.01 µM) of 10.7%, a viability, T/C (second compound 10 µM, first compound 0.0316 µM) of 6.47% and a viability, T/C (second compound 10 µM, first compound 0.1 µM) of 4.1%.
